# Source: US10028956B2, “Methods of treating various cancers using an AXL/cMET inhibitor in combination with other agents” (Ignyta, Inc., priority 2013, dated 2018)
# Molecular target: T1, AXL (Homo sapiens, UniProt P30530)
# T1 sequence (P30530 26-894): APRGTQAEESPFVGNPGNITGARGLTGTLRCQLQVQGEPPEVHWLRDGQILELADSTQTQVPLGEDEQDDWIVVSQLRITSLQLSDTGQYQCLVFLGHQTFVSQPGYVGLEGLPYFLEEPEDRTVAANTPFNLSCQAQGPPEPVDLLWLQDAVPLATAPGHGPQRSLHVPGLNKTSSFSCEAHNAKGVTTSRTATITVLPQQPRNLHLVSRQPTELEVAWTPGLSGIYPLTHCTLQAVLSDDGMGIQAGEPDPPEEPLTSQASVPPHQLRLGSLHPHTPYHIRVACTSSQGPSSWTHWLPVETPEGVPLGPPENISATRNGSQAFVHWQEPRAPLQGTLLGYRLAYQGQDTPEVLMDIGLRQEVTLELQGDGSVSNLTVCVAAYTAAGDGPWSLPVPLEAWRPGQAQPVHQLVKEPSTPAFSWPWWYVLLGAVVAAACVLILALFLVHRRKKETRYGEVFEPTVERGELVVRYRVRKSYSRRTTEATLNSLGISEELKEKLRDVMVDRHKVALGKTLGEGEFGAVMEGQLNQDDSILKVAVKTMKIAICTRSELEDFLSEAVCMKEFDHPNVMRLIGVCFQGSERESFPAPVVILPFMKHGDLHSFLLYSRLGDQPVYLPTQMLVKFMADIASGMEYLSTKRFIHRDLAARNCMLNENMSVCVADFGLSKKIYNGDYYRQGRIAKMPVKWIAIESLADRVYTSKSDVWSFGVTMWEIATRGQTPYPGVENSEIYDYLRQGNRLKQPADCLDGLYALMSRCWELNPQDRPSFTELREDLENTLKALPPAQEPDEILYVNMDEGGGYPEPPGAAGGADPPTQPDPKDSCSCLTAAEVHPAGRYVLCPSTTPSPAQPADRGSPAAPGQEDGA
# Experiment: Inhibition of AXL phosphorylation in NCI-H1299 NSCL xenografts (PK/PD)
# Format: in vivo, mice
# Parameters: endogenous in cells; host or cells: NCI-H1299 human NSCLC cells (culture; subcutaneous xenograft in mice)
# Text: Female Nu/Nu mice (6-8 weeks, Charles River Laboratory, Wilmington, Mass.) were maintained 5/cage in microisolator units on a standard laboratory diet (Teklad Labchow, Harlan Teklad, Madison, Wis.). Animals were housed under humidity- and temperature-controlled conditions and the light/dark cycle was set at 12-hour intervals. Mice were quarantined at least 1 week prior to experimental manipulation. Experiments were approved (Protocol 03-023) by the Institutional Animal Care and Use Committee of Teva Pharmaceuticals Inc
# Briefly, NCI-H1299 NSCL cells (for AXL studies) or GTL-16 gastric carcinoma cells (for c-Met studies) were collected and resuspended in DMEM medium at density of 5×10^7/mL and an aliquot (100 μL) of the cell suspension (5×10^6 cells) was inoculated subcutaneously to the left flank of each mouse with a 23 g needle. […] At indicated time points post dosing, the mice (3 mice at each time point) were sacrificed by decapitation and blood was collected in 1.5 mL microcentrifuge tubes containing 20 μL of heparin sodium (10,000 unit/mL in H2O, Cat^#0210193191, MP Biomedical, Solon, Ohio) and left on ice briefly. The tubes were centrifuged at 20,817×g (Eppendorf Centrifuge 5417R with a FA45-30-11 rotor) for 8 minutes at 4° C. and the plasma was collected and transferred to 1.5 mL microfuge tubes, which were then stored at −80° C. The tumors were excised and weighed, cut into small pieces with a scalpel and placed into a round-bottom 14 mL tube (Cat^#352059, Becton Dickinson, Franklin, N.J.) on ice. Two volumes of FRAK lysis buffer without detergent [10 mM Tris, pH 7.5, 50 mM sodium chloride, 20 mM sodium fluoride, 2 mM sodium pyrophosphate, 0.1% BSA, plus freshly prepared 1 mM activated sodium vanadate, 4 mM DTT, 1 mM PMSF and the protease inhibitor cocktail III (1:100 dilution, Cat^#539134, Calbiochem, La Jolla, Calif.)] were added to 1 volume of tumor (eg, 500 μL FRAK lysis buffer were added to 250 mg tissue). […] The compound levels in both plasma and tumor lysates were measured by LC-MS/MS. […]
smiles,measurement,setting,value
"COc1cc2nccc(Oc3ccc(NC(=O)c4cn(C(C)C)c(=O)n(-c5ccc(F)cc5)c4=O)cc3F)c2cc1OC [CEP-40783, 3-(4-Fluorophenyl)-1-isopropyl-2,4-dioxo-1,2,3,4-tetrahydropyrimidine-5-carboxylic acid [4-(6,7-dimethoxyquinolin-4-yloxy)-3-fluorophenyl]-amide]",inhibition of AXL phosphorylation (target inhibition),"0.3 mg/kg, 6 h post dose",~80%
same,inhibition of AXL phosphorylation (target inhibition),"1 mg/kg, between 6-24 h",> 90%
same,inhibition of AXL phosphorylation,"10 mg/kg po, up to 48 h post dosing",complete AXL inhibition
